Key:
Assay type in all cases: physicochemical
[1] = Moulding process: time to stable tablets (consolidation/solidification time) and liquid amount after wetting the powder; conditions: for consolidation/solidification time (in words): wetted with water
Procedure: α-Lactose anhydrate was transferred into wells of a moulding form and wetted with pure water and water/alcohol mixtures, as shown in FIG. 2. Pure water and aqueous EtOH solutions, 25% (v/v) and 50% EtOH (v/v), ratio by volume, were used as solvents. These experiments were performed to measure the time needed for the formation of stable tablets, to determine the optimal amount of solvent, and to determine the optimal water:alcohol ratio in water/alcohol mixtures.
The solidification time (time until the tablets show sufficient hardness for handling) after addition of the solvent was determined using pure water and an aqueous glucose solution. It was observed that the solidification time of anhydrous glucose is much shorter when glucose solutions are applied instead of pure water. Glucose anhydrate solidifies after 10-15 min when water is used but hardens within 2-6 minutes after the application of glucose solutions. The amount of glucose in the solution is less critical for the solidification time, a concentration of 25 wt % is sufficient.
The moulding form tests were carried out with two different solvents: a) water and b) 50% EtOH (v/v) solution.
In a first experiment, tablets with amorphous Ca-L-Lactate (L-CaLac) using pure water were produced.
Wetting partly anhydrous MgSO4 (7 wt % water content) with pure water results in solid tablets. After 5 minutes the tablets can be unbaged from the moulding form. The wettability is not as good as for the α-lactose powders. About 50-60 μl water were added per 100 mg powder. By using a saturated aqueous solution of MgSO4 the hardening time could be halved (2-3 minutes).

[2] = Drug load capacity test of moulded tablets with glass beads (Spheriglass 2429); conditions: for Consolidation time / Consolidation time (in words): loaded with glass beads; for time to solid/stable tablets (in words): mixture with Spheriglass 2429 (50 wt % where stated), water
Text: As model substance for the drug load capacity test, Spheriglass 2429 (glass beads, Potters Europe) was used, because there are no interactions between the glass beads and lactose to exclude other effects. Spheriglass 2429 has a particle size distribution of 53-106 μm. It was mixed with refluxed and sieved Spherolac 100 anhydrate (Spherolac 100 AH) (<250 μm) in a ratio of 30 and 60 wt %. […] The higher the amount of Spheriglass 2429 the less binder solution is needed, because of the decreasing amounts of water binding excipients.
A mixture of 50 wt % anhydrous glucose and 50 wt % Spheriglass 2429 was wetted with a 25 wt % glucose solution and pure water. The aim of this experiment was to investigate if the consolidation time is slowed down by loading a slower solidifying hydrate (in comparison to α-Lactose anhydrate) with a non-matrix-forming substance. […] The advantages of the use of glucose are rather seen as additive to other fast consolidating excipients to improve or modify the consolidation process, its rate, and the properties of the product.

[3] = Permanent stability of Na2SO4 tablets with binder in the wetting liquid
Procedure: Attempts were undertaken to ensure the permanent stability of the Na2SO4 (decahydrate) tablets by adding binder polymers to the wetting liquid. Amounts of 5 wt % and 7.5 wt % aqueous PVA 388 solutions were tested. […] The tests show the possibility of a new approach: rapid solidification by hydrate formation and permanent stability through additional binders.

[4] = Tablet hardness, three-point-break tester; conditions: 200 mg
Procedure: The tablet hardness was measured with a three-point-break tester by Charles Ischi AG (HC 6.2 50 N).

[5] = Mercury intrusion porosimetry of lactose tablets
Procedure: The porosity, ratio between the sample void volumes and its external volume, of a tablet should be high if a fast disintegration is desired (e.g. for sublingual tablets). Porosity was measured using mercury porosimetry. For a complete mercury intrusion porosimetry (MIP) measurement, two different porosimeter types are needed—a low-pressure porosimeter (LP-MIP) and a high-pressure porosimeter (HP-MIP). As the LP-MIP, Pascal 140 (Thermo Fisher Scientific, I-Milano) was used and the Porosimeter 2000 (Carlo Erba, I-Milano) as the HP-MIP. Pure Spherolac 100 was used for the experiments.

[6] = Disintegration time of lactose tablets
Text: Mercury porosimetry of the 3D-powder printed tablet indicated a porosity of 63.8% and an average pore radius of 48 Micron. […] Also the tablets produced by the molding process show porosities around 50% whereas those of the pressed tablets are much smaller. The high porosity guarantees a fast intrusion of fluids into the tablet and is thus an important prerequisite of a fast disintegration.

[7] = Mercury intrusion porosimetry of lactose tablets; conditions: 3D-powder printed tablet; calculated value
[8] = 50 wt % Spheriglass 2429, 25 wt % glucose solution and pure water
[9] = 5 wt % PVA 388 in 50% EtOH (v/v)
[10] = 7.5 wt % PVA 388 in 50% EtOH (v/v)
[11] = 10 wt % PVA 388 in 50% EtOH (v/v)
[12] = production method: 3D-powder printing
[13] = production method: moulding process
[14] = production method: compaction 10 kN
[15] = production method: compaction 30 kN

C[C@H](O)C(=O)[O-].C[C@H](O)C(=O)[O-].[Ca+2] [Ca-Lactate anhydrate, anhydrous Ca-Lactate]
Consolidation time ([1]; solution: water): 1 to 2 min
consolidation/solidification time (in words) [1]: within one minute
solidification time ([2]; 50 wt % Spheriglass 2429, 50% EtOH (v/v) binder solution): ca. 45 min
Consolidation time ([2]; solvent H2O): 1 to 2 min

O.O=S(=O)([O-])[O-].O=S(=O)([O-])[O-].[Ca+2].[Ca+2] [Calcium sulphate hemihydrate, reference compound]
Consolidation time ([1]; solution: water): ca. 35 min

OC[C@H]1OC(O)[C@H](O)[C@@H](O)[C@@H]1O (some centres unmarked) [Glucose anhydrate]
solidification time ([1]; glucose solutions applied): 2 to 6 min
Consolidation time ([1]; solution: aqueous glucose solution (25-50 wt %)): 2 to 6 min
Consolidation time ([1]; solution: water): ca. 10 min
solidification time ([1]; water): 10 to 15 min
state of tablets after 10 minutes [2, 8]: still rather soft
time after which tablets could be removed (in words) [2, 8]: After four minutes
Consolidation time ([2]; solvent H2O): >10 min

O=C([O-])CC(O)(CC(=O)[O-])C(=O)[O-].O=C([O-])CC(O)(CC(=O)[O-])C(=O)[O-].[Mg+2].[Mg+2].[Mg+2] [Mg Citrate anhydrate, anhydrous Mg Citrate]
time to stable tablets ([1]; pure water, with seed crystals of the dodecahydrate (about 2%)): 1 to 4 min
Consolidation time ([1]; solution: water): 1 to 4 min
solidification time ([1]; without seed crystals): about 4 min
time to stable tablets ([2]; 50% wt Spheriglass 2429, wetting with water): ≥ 10 min
Consolidation time ([2]; solvent H2O): >10 min

O=S(=O)([O-])[O-].[Mg+2] [MgSO4 anhydrate]
Consolidation time (in words) ([1]; solution: water): few seconds
consolidation/solidification time (in words) [1]: within a few seconds
Consolidation time (in words) ([2]; solvent H2O): few seconds
time to solid/stable tablets (in words) [2]: after a few seconds

O=S(=O)([O-])[O-].[Na+].[Na+] [Na2SO4 anhydrate]
Consolidation time (in words) ([1]; 50% EtOH (v/v) solution): within one minute
Consolidation time (in words) ([1]; solution: water): few seconds
consolidation/solidification time (in words) [1]: within a few seconds
Consolidation time (in words) ([2]; solvent H2O): few seconds
time to solid/stable tablets (in words) [2]: within a few seconds
mechanical stability of tablets (in words) ([3]; 7.5 wt % aqueous PVA 388 solution, after drying two and a half days at 22° C. or 40° C.): mechanically stable tablets
mechanical stability of tablets the next day (in words) ([3]; wetted with 5 wt % aqueous PVA 388 solution): still could be easily crushed

OC[C@H]1O[C@H](OC[C@H]2O[C@H](O[C@]3(CO)O[C@H](CO)[C@@H](O)[C@@H]3O)[C@H](O)[C@@H](O)[C@@H]2O)[C@H](O)[C@@H](O)[C@H]1O [Raffinose anhydrate]
Consolidation time (in words) ([1]; 50% EtOH (v/v) solution): about four to five minutes
Consolidation time (in words) ([1]; solution: water): few seconds
consolidation/solidification time (in words) [1]: within a few seconds
Consolidation time ([2]; solvent H2O): 2 min
Consolidation time ([2]; solvent H2O/EtOH 1:1): 4 min
time to solid/stable tablets (in words) [2]: Two minutes
time after which tablets could be removed ([2]; with Spheriglass, 50% EtOH (v/v) solution): 2 to 4 min

OC[C@H]1O[C@@H](O[C@H]2[C@H](O)[C@@H](O)[C@@H](O)O[C@@H]2CO)[C@H](O)[C@@H](O)[C@H]1O [Spherolac 100 AH]
Average hardness of tablet [4, 9]: 10.45 N
Average hardness of tablet ([4]; 5 wt % aq. PVA 388): 8.65 N
Average hardness of tablet [4, 10]: 16.75 N
Average hardness of tablet ([4]; 7.5 wt % aq. PVA 388): 12.2 N
Average hardness of tablet [4, 11]: 20.2 N
Average hardness of tablet ([4]; 10 wt % aq. PVA 388): 14.75 N
Average hardness of tablet ([4]; binder solution: water): 9.4 N
time to stable tablets after wetting (in words) ([2]; mixed with Spheriglass 2429 at 30 and 60 wt %): within a few seconds
Average Pore Radius ([5]; 3D-powder printed tablet): 48 Micron
porosity (mercury porosimetry) ([5]; 3D-powder printed tablet): 63.8%
Average Pore Radius [5, 12]: 48 μm
Porosity [5, 12]: 63.8%
Average Pore Radius [5, 13]: 2.4 μm
Porosity [5, 13]: 49%
Porosity ([5]; tablets produced by the molding process): around 50%
disintegration time (in words) ([6]; printed tablets): few seconds
calculated porosity [7]: 71.3%

O.OC[C@H]1O[C@@H](O[C@H]2[C@H](O)[C@@H](O)[C@@H](O)O[C@@H]2CO)[C@H](O)[C@@H](O)[C@H]1O [Spherolac 100 MH, α-Lactose monohydrate]
Average hardness of tablet [4, 9]: 5.85 N
Average hardness of tablet [4, 10]: 8.1 N
Average hardness of tablet [4, 11]: 13.1 N
Average Pore Radius [5, 14]: 0.6 μm
Porosity [5, 14]: 12%
Average Pore Radius [5, 15]: 0.2 μm
Porosity [5, 15]: 5%
disintegration time (in words) ([6]; tablets produced at compaction pressure of 30 kN): several minutes

OC[C@H]1O[C@@H](O[C@H]2[C@H](O)[C@@H](O)[C@@H](O)O[C@@H]2CO)[C@H](O)[C@@H](O)[C@H]1O [Stable α-Lactose anhydrate]
Consolidation time ([1]; solution: water): 0.083 to 0.167 min
time to stable tablets ([1]; water/alcohol mixtures (25% and 50% EtOH v/v)): more than 10 seconds
time to stable tablets ([1]; wetting with pure water): 0.083 to 0.167 min
Consolidation time (in words) ([2]; solvent H2O): few seconds
Consolidation time (in words) ([2]; solvent H2O/EtOH 1:1): few seconds
